Reference: the supplement of paper PMC8967900

Key:
Experiment in all cases: selective drug sensitivity score (sDSS, relative to normal bone marrow) (sDSS (score)); higher = more potent and effective on the cell line relative to normal bone marrow cells
Details in all cases: 72 h
KARPAS-45 = test system: KARPAS-45
COG-LL-317 = test system: COG-LL-317
P12-ICHIKAWA = test system: P12-ICHIKAWA
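Further: ALL cell lines in 384-well plates, five doses spanning 10,000-fold, each plate scaled between vehicle and 100 µmol/L benzalkonium chloride controls, sDSS an adapted area-under-curve metric.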

| SMILES | selective drug sensitivity score (KARPAS-45) | selective drug sensitivity score (COG-LL-317) | selective drug sensitivity score (P12-ICHIKAWA) |
| --- | --- | --- | --- |
| CC(C)[C@@H](CS(=O)(=O)C(C)C)N1C(=O)[C@@](C)(CC(=O)O)C[C@H](c2cccc(Cl)c2)[C@H]1c1ccc(Cl)cc1 [AMG-232] (top concentration 10000 nM) | -8.34 | 15.1 | -8.24 |
| CC(=O)c1c(C)c2cnc(Nc3ccc(N4CCNCC4)cn3)nc2n(C2CCCC2)c1=O [Palbociclib] (top concentration 10000 nM) | 3.68 | 0.98 | 4.78 |
| Nc1ncnc2c1nc(N)n2[C@@H]1O[C@H](CO)[C@@H](O)[C@H]1O [8-amino-adenosine] (top concentration 50000 nM) | -3.32 | 3.28 | 0.38 |
| Cc1nc(NC(=O)N2CCC[C@H]2C(N)=O)sc1-c1ccnc(C(C)(C)C(F)(F)F)c1 [Alpelisib] (top concentration 2500 nM) | 0.38 | -0.42 | -0.32 |
| CO[C@H](C(=O)[C@@H](O)[C@@H](C)O)[C@@H]1Cc2cc3cc(O[C@H]4C[C@@H](O[C@H]5C[C@@H](O)[C@H](O)[C@@H](C)O5)[C@@H](O)[C@@H](C)O4)c(C)c(O)c3c(O)c2C(=O)[C@H]1O[C@H]1C[C@@H](O[C@H]2C[C@@H](O[C@H]3C[C@](C)(O)[C@H](O)[C@@H](C)O3)[C@H](O)[C@@H](C)O2)[C@H](O)[C@@H](C)O1 [Plicamycin] (top concentration 10000 nM) | -11.1 | -1.96 | -13.8 |
| O=C(Nc1c[nH]nc1-c1nc2ccc(CN3CCOCC3)cc2[nH]1)NC1CC1 [AT9283] (top concentration 1000 nM) | 9.22 | 14.2 | 13 |
| C[C@@H]1COCCN1c1cc(C2([S@](C)(=N)=O)CC2)nc(-c2cc[nH]c3nccc2-3)n1 [AZD6738] (top concentration 25000 nM) | 8.28 | 16 | 9.98 |
| Cn1cc(CNCC2CCN(c3ncc(C(=O)NO)cn3)CC2)c2ccccc21 [Quisinostat] (top concentration 1000 nM) | 8.18 | 7.18 | 3.78 |
| COCCNCc1ccc(-c2cc3nccc(Oc4ccc(NC(=O)C5(C(=O)Nc6ccc(F)cc6)CC5)cc4F)c3s2)nc1 [Sitravatinib] (top concentration 2500 nM) | 3.78 | -0.42 | 0.08 |
| COCC[n+]1c2c(n(Cc3cnccn3)c1C)C(=O)c1ccccc1C2=O [Sepantronium_bromide] (top concentration 10000 nM) | 11 | 13.3 | 4.14 |
| C[C@@H]1COC(Nc2ccc3ncnc(Nc4ccc(OCc5nccs5)c(Cl)c4)c3c2)=N1 [Varlitinib] (top concentration 10000 nM) | -0.18 | -0.18 | 3.02 |
| CN(c1ncccc1CNc1nc(Nc2ccc3c(c2)CC(=O)N3)ncc1C(F)(F)F)S(C)(=O)=O (top concentration 10000 nM) | 2.72 | -1.28 | -0.08 |
| CO[C@H]1C[C@@H]2CC[C@@H](C)[C@@](O)(O2)C(=O)C(=O)N2CCCC[C@H]2C(=O)O[C@H]([C@H](C)C[C@@H]2CC[C@@H](O)[C@H](OC)C2)CC(=O)[C@H](C)/C=C(\C)[C@@H](O)[C@@H](OC)C(=O)[C@H](C)C[C@H](C)/C=C/C=C/C=C/1C [Sirolimus] (top concentration 100 nM) | -0.16 | 0.74 | -2.46 |
| Cn1ncc(Cl)c1-c1cc(C(=O)N[C@H](CN)Cc2ccc(F)c(F)c2)oc1Cl [Uprosertib] (top concentration 10000 nM) | 5.6 | 18.8 | 1.9 |
| CC(C)(C)Cn1c(N)nc2ccc(-c3[nH]c(C(C)(C)C)nc3-c3ccc(F)cc3)nc21 [Ralimetinib] (top concentration 10000 nM) | 5.36 | 0.96 | 1.86 |
| NC(=O)N1CCC(CC(=O)N2CCC([C@H]3c4ncc(Br)cc4CCc4cc(Cl)cc(Br)c43)CC2)CC1 [Lonafarnib] (top concentration 100000 nM) | 24.1 | 14 | 6.74 |
| CCN(CC)CCNC(=O)c1c(C)[nH]c(/C=C2\C(=O)Nc3ccc(-c4csc(-c5ccccc5)n4)cc32)c1C [Amcasertib] (top concentration 10000 nM) | 6.4 | 7.7 | 0 |
| CC(C)[C@H](C(=O)Nc1ccc(C(=O)NO)cc1)c1ccccc1 [AR-42] (top concentration 10000 nM) | 10.8 | 6.48 | 8.28 |
| CCNC(=O)C[C@@H]1N=C(c2ccc(Cl)cc2)c2cc(OC)ccc2-n2c(C)nnc21 [Molibresib] (top concentration 10000 nM) | 5.3 | 3.2 | 3 |
| O=C(Nc1cccc(NC(=O)c2cccc(O)c2O)c1)c1cccc(O)c1O [MST-312] (top concentration 10000 nM) | 8.1 | 18.2 | 6.6 |

| SMILES | selective drug sensitivity score (KARPAS-45) | selective drug sensitivity score (COG-LL-317) | selective drug sensitivity score (P12-ICHIKAWA) |
| --- | --- | --- | --- |
| CC(=O)O[C@]1(C(C)=O)CC[C@H]2[C@@H]3C=C(C)C4=CC(=O)CC[C@]4(C)[C@H]3CC[C@@]21C [Megestrol_acetate] (top concentration 10000 nM) | 2.72 | -0.58 | 1.82 |
| Nc1ccn([C@@H]2O[C@H](CO)[C@@H](O)C2(F)F)c(=O)n1 [Gemcitabine] (top concentration 1000 nM) | -7.44 | 20.4 | 15.8 |
| CC1(C)CCC(c2ccc(Cl)cc2)=C(CN2CCN(c3ccc(C(=O)NS(=O)(=O)c4ccc(N[C@H](CCN5CCOCC5)CSc5ccccc5)c(S(=O)(=O)C(F)(F)F)c4)cc3)CC2)C1 [Navitoclax] (top concentration 10000 nM) | 22.8 | 20.5 | 17.6 |
| NC1(c2ccc(-c3nc4ccn5c(=O)[nH]nc5c4cc3-c3ccccc3)cc2)CCC1 [MK-2206] (top concentration 1000 nM) | 2.26 | 3.56 | 1.66 |
| COc1cc2c(cc1-c1c(C)noc1C)ncc1[nH]c(=O)n([C@H](C)c3ccccn3)c12 [I-BET151] (top concentration 10000 nM) | 9.16 | 6.56 | 4.06 |
| C=CC(=O)N1CC/C(=C\c2ccc(F)c([N+](=O)[O-])c2)C(=O)/C(=C/c2ccc(F)c([N+](=O)[O-])c2)C1 [VLX1570] (top concentration 10000 nM) | -1.02 | 2.78 | -4.92 |
| C[C@H]1C=C2C(=O)O[C@H]3CC[C@@H](C1)[C@@]23O [Galiellalactone] (top concentration 25000 nM) | 5.16 | 7.36 | 1.86 |
| C[C@@H](Nc1cc(F)cc(F)c1)c1cc(C(=O)N(C)C)cc2c(=O)cc(N3CCOCC3)oc12 [AZD-8186] (top concentration 1000 nM) | 2.14 | -0.26 | -0.26 |
| C[C@@]1(C(=O)Nc2ccc(F)nc2)CCCN1c1nc(Nc2cc(C3CC3)n[nH]2)c2cccn2n1 (top concentration 10000 nM) | 6.18 | 12.5 | 11.3 |
| CCCCCCCCCCCCCCCCOP(=O)([O-])OCC[N+](C)(C)C [Miltefosine] (top concentration 100000 nM) | 2.26 | 1.06 | 6.56 |
| O=C(Nc1ccc2[nH]nc(-c3ccncc3)c2c1)[C@@H]1CCN(CC(=O)N2CCN(c3ccc(-c4ncccn4)cc3)CC2)C1 (top concentration 10000 nM) | -0.84 | -2.04 | 1.06 |
| O=C1CCc2c(Oc3ccc4c(c3)[C@@H]3[C@H](O4)[C@H]3c3nc4cc(C(F)(F)F)ccc4[nH]3)ccnc2N1 [Lifirafenib (BGB-283)] (top concentration 10000 nM) | 2.88 | 2.28 | 3.18 |
| O=C(/C=C/c1cccc(S(=O)(=O)Nc2ccccc2)c1)NO [Belinostat] (top concentration 10000 nM) | 14.8 | 12.9 | 8.6 |
| Cc1[nH]nc(C(F)(F)F)c1Cc1sc2c(c1C(=O)N1C[C@](C)(O)CO1)c(=O)n(C)c(=O)n2C(C)C [AZD3965] (top concentration 1000 nM) | 0 | 0.3 | 0 |
| Nc1ccccc1NC(=O)c1ccc(CNC(=O)OCc2cccnc2)cc1 [Entinostat] (top concentration 10000 nM) | 9.48 | 2.98 | 7.58 |
| CCN(CC)CCNC(=O)c1c(C)[nH]c(/C=C2\C(=O)Nc3ccc(F)cc32)c1C [Sunitinib] (top concentration 1000 nM) | -0.64 | -1.44 | -1.34 |
| Nc1ccccc1NC(=O)c1ccc(CNc2nccc(-c3cccnc3)n2)cc1 [Mocetinostat] (top concentration 10000 nM) | 8.84 | 5.64 | 6.24 |
| O=C(/C=C\n1cnc(-c2cc(C(F)(F)F)cc(C(F)(F)F)c2)n1)NNc1cnccn1 [Selinexor] (top concentration 10000 nM) | 10.9 | 17.4 | 10.1 |
| O=C(CCCCCCNC(=O)c1cnc(N(c2ccccc2)c2ccccc2)nc1)NO [Rocilinostat] (top concentration 10000 nM) | 10 | 5.14 | 5.34 |
